Experiments:
[1] = system: platytocin receptor (PTR); format: cell-based; conditions: COS-7 cells transfected with ptr, cotreated with platytocin 90 min at 37°C; global Schild analysis, slope of 1; mean ± SEM, n = 4
S. pusilla = assay: Survival after hyper-osmotic salinity exposure; format: in vivo, Stylochoplana pusilla; conditions: 10^−6 M OVTA, n = 45, Fig. 3B

Substance: [d(CH2)5^1, Tyr(Me)^2, Thr^4, Orn^8, Tyr^9-NH2]–vasotocin [OVTA]
- pA2, block of platytocin-mediated IP1 accumulation [1]: 6.99 ± 0.27
- hyperosmolality (70 ppt) resistance (S. pusilla): Hyperosmolality (70 ppt) resistance is blocked by 10^−6 M OVTA
